Patent US5834511A, “DL- DI- or tri-hydroxyphenylglycine alkyl esters for the treatment of inflammatory and allergic conditions” (Ciba Specialty Chemicals Corporation, priority 1994, dated 1998)
Where two headings read alike, the source gives them in different places.

Key:
carrageenan oedema = assay: Carrageenan oedema of the rat paw after systemic application; format: in vivo, rat (Wistar); details: administered simultaneously with carrageenan, paw diameter 3 hours after inducing the oedema
[1] = tested on: writhing reactions induced by acetic acid; assay: Acetic acid-induced writhing syndrome; format: in vivo, mouse (CBA); details: i.p., 5×10^-5 mol/kg, 30 minutes before inducement; recorded over 20 minutes
Experimental: The writhing reactions are induced by i.p. (=intraperitoneal) injection of 0.1 ml of 1% acetic acid/10 g and recorded over a period of 20 minutes after injection.

5-LOX = target: T1, 5-LOX (Oryctolagus cuniculus, UniProt P12530); assay: Lipoxygenase activity, oxygraphic (Table 4 column headed 5-LOX; method describes 15-lipoxygenase); format: biochemical, rabbit
T1 construct: 15-lipoxygenase from rabbit reticulocytes; from tissue; host or cells: rabbit reticulocytes
T1 sequence (P12530 2-663): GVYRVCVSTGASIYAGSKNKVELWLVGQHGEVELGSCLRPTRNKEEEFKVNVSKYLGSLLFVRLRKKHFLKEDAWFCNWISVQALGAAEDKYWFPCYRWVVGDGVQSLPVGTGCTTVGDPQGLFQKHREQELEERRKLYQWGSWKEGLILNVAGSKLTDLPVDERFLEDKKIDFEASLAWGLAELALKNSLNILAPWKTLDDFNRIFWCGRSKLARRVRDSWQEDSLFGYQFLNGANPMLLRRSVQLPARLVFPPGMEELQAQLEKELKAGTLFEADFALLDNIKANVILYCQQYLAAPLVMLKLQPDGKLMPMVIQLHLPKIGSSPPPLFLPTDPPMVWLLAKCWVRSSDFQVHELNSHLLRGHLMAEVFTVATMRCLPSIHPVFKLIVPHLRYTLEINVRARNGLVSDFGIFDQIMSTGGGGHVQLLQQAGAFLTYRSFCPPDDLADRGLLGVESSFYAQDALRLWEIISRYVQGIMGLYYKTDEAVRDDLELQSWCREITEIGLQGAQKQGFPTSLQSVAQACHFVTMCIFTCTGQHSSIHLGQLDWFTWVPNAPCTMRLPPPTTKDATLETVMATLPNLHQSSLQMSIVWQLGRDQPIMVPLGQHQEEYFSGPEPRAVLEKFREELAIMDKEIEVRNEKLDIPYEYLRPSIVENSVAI
Experimental: Prostaglandin H synthase is prepared from the seminal vesicles of sheep (F. S. Van der Ouderaa, M. Buytenhek.: Methods Enzymol. 86, 60-68 (1982)), and 15-lipoxygenase from rabbit reticulocytes (T. Schewe, R. Wiesner, S. M. Rapoport: Methods Enzymol. 71, 430-441 (1981)). Both enzymatic activities are measured oxygraphically at 25° C.
The 15-lipoxygenase activity is measured using 265 μmol/l of potassium linoleate as substrate in 0.1 molar phosphate puffer at pH 7.4 and 0.2% sodium cholate (T. Schewe, H. Kuhn, S. M. Rapoport, in: Prostaglandins and Related Substances--A Practical Approach pp. 229-242, C. Benedetto, R. G. McDonald-Gibson, S. Nigam, T. F. Slater (Eds.); IRL Press, Oxford, Wash. (1987)). The compounds are freshly dissolved in 2-methoxyethanol and preincubated for 5 minutes with the enzyme preparation, and the reaction is started by addition of substrate.

[2] = tested on: hydrogen peroxide formation in casein-stimulated peritoneal granulocytes of rats; assay: Formation of hydrogen peroxide induced by opsonated zymosan in casein-stimulated peritoneal granulocytes; format: cell-based, rat; details: 5×10^6 cells/ml, 30 min incubation
[3] = tested on: ear oedema induced by croton oil; assay: Croton oil ear oedema, topical application (antioedematous activity); format: in vivo, mouse (AB); details: 2×10 μl of a 5% ethanolic solution 1 hour after croton oil, 6 hours after inducing oedema
Experimental: Antioedamatous activity The assays for determining the antioedamatous activity of the novel compounds of formulae (101) and (102) prepared in Examples 1 and 2 are carried out on male AB mice (18-22 g, 9 animals per group). The ear oedema is induced by applying 2×10 μl of croton oil (1% in acetone) to the ears of the mice. After 1 hour the novel compounds (2×10 μl of a 5% ethanolic solution of each compound) are applied. After a further 5 hours (6 hours after inducing oedema) the animals are sacrificed, and pieces of ear tissue having a diameter of 8 mm are obtained. The oedema weight is determined as the difference between the contralateral ear. The percentage inhibition is calculated from a comparison with the control animals. (Table 2).

PGH Synthase = target: T2, PGH Synthase (Ovis aries, UniProt P05979); assay: Prostaglandin H synthase activity, oxygraphic; format: biochemical, sheep; details: 30 μmol/l arachidonic acid, pH 8.0, 25° C., 5 minutes preincubation
T2 construct: prepared from the seminal vesicles of sheep; from tissue; host or cells: sheep seminal vesicles, microsomal enzyme preparation
T2 sequence (P05979 25-600): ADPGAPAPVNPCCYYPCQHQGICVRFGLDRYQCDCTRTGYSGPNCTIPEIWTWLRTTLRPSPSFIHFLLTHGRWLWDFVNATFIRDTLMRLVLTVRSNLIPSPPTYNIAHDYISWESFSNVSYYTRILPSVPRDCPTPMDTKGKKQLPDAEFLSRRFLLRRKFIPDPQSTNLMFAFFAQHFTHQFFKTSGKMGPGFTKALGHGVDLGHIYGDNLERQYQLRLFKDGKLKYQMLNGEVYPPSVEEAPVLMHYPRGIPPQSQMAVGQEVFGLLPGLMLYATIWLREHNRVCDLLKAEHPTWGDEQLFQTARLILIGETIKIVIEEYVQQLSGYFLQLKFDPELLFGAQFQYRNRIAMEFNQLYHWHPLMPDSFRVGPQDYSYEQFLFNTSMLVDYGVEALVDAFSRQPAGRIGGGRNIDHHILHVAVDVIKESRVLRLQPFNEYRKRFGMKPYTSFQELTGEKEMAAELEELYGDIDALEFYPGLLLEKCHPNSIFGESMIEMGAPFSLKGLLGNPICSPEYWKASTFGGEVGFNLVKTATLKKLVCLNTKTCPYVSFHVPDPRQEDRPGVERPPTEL
Experimental: Both enzymatic activities are measured oxygraphically at 25° C.

5-lipoxygenase = target: T3, 5-lipoxygenase (Homo sapiens, UniProt P09917); assay: Formation of 5-HETE by 5-lipoxygenase of human polymorphonuclear leucozytes; format: cell-based; details: 1-^14 C-arachidonic acid (10 μmol/l)
T3 construct: 5-lipoxygenase of human polymorphonuclear leucozytes; endogenous in cells; host or cells: human polymorphonuclear leukocytes
T3 sequence (P09917 1-674): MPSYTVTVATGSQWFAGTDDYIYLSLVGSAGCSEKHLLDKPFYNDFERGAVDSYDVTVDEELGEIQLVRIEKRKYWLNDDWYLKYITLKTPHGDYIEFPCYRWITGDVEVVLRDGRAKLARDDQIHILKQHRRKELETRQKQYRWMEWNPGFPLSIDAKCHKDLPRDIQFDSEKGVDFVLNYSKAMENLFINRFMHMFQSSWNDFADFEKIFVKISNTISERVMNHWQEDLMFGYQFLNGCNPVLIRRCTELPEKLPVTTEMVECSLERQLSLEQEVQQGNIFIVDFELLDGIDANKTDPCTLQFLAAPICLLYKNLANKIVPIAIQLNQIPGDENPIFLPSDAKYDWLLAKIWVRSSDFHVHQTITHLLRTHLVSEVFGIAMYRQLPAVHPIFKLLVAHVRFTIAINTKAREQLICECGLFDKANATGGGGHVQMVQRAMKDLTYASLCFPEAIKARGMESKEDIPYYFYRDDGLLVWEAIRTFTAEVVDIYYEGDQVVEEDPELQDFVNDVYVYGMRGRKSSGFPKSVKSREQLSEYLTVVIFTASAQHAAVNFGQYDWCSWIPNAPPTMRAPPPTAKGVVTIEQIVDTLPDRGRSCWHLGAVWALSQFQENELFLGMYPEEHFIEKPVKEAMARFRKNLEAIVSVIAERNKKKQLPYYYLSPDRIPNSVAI

[4] = Rattus norvegicus, ip, read-out: ED50

In the case of `CC(=O)Oc1ccccc1C(=O)O` [acetylsalicylic acid, reference compound], the ED50 (carrageenan oedema; i.p.) is reported as 15.2 10^-4 mol/kg, the Inhibition [1] is reported as 32.3% and the IC50 (5-LOX; 265 μmol/l potassium linoleate, pH 7.4, 25° C., 5 minutes preincubation (method of 15-lipoxygenase), read-out: 5-LOX IC50) is reported as > 1000 µM. The IC50 [2] was > 100 µM.
`CCCCCCCCOC(=O)C(N)c1cc(O)c(O)c(O)c1` (racemic) [compound of formula (102)] showed an ED50 (carrageenan oedema; [4]) of 80 µmol/kg, an Inhibition [3] of 45.7% and an Inhibition [1] of 80.7%. The IC50 (PGH Synthase) was 85 µM, the IC50 (5-LOX) was 250 µM and the IC50 (5-lipoxygenase) was 1.3 µM. The IC50 ([2]; Rattus norvegicus, 0.5 h) was 5.3 µM.
Work on `CCCCCCCCOC(=O)C(N)c1ccc(O)c(O)c1.Cl` (racemic) [compound of formula (101), DL-3,4-dihydroxyphenylglycine octyl ester hydrochloride] yielded an ED50 (carrageenan oedema; [4]) of 150 µmol/kg, an Inhibition [3] of 23.9% and an Inhibition [1] of 80.2%. It also gave an IC50 (PGH Synthase) of 110 µM, an IC50 (5-LOX) of 3.9 µM and an IC50 (5-lipoxygenase) of 6.9 µM. It also gave an IC50 ([2]; Rattus norvegicus, 0.5 h) of 2.3 µM.
